Data published in US10208083B2 (priority 2015, dated 2019).
Marks after values point to notes of the source that are not given here.

What was measured:
SKOV-3 = assay: cells; type: cell-based, human; design: TGI: unit not given here; conditions: for GI50 / IC50: Homo sapiens, SK-OV-3, 48 h
in vivo = conditions: female, C57Bl/6, mouse, ip
MOLT-4 = assay: cells; type: cell-based, human; design: TGI: unit not given here; conditions: for GI50 / IC50: Homo sapiens, MOLT-4, 48 h
[1] = tested on: murine P388 lymphocytic leukemia; design: species or system mice; conditions: mouse, in vivo, ip
C57Bl/6 mice = conditions: female, C57Bl/6, mouse, in vivo, ip
K-562 = assay: cells; type: cell-based, human; design: TGI: unit not given here; conditions: for GI50 / IC50: Homo sapiens, K562, 48 h
UWB1.289 + BRCA1 = assay: cells; type: cell-based, human; design: TGI: unit not given here; conditions: for GI50 / IC50: Homo sapiens, UWB1289, 48 h
UWB1.289 = assay: cells; type: cell-based, human; design: TGI: unit not given here; conditions: for GI50 / IC50: Homo sapiens, UWB1289, 48 h
OVCAR-3 = assay: cells; type: cell-based, human; design: TGI: unit not given here; conditions: for GI50 / IC50: Homo sapiens, OVCAR-3, 48 h
PC-3 = assay: cells; type: cell-based, human; design: TGI: unit not given here; conditions: for GI50 / IC50: Homo sapiens, PC-3, 48 h
MCF-7 = assay: cells; type: cell-based, human; design: TGI: unit not given here; conditions: for GI50 / IC50: Homo sapiens, MCF7, 48 h
T-47D = assay: cells; type: cell-based, human; design: TGI: unit not given here; conditions: for GI50 / IC50: Homo sapiens, T47D, 48 h
[2] = tested on: SCOV-3 human ovarian cancer; conditions: in vivo

Compound	TGI (SKOV-3)	GI50 (SKOV-3) [µM]	IC50 (SKOV-3) [µM]	LD50 (in vivo) [mg/kg]	TGI (MOLT-4)	GI50 (MOLT-4) [µM]	IC50 (MOLT-4) [µM]	Cures [1]	MST ± SD [1] [days]	T/C % [1]	LD10 (C57Bl/6 mice) [mg/kg]	TGI (K-562)	GI50 (K-562) [µM]	IC50 (K-562) [µM]	TGI (UWB1.289 + BRCA1)	GI50 (UWB1.289 + BRCA1) [µM]	IC50 (UWB1.289 + BRCA1) [µM]	TGI (UWB1.289)	GI50 (UWB1.289) [µM]	IC50 (UWB1.289) [µM]	also measured
C[C@]12CC[C@H](OC(=O)Cc3ccc(N(CCCl)CCCl)cc3)C[C@@H]1CC[C@@H]1[C@@H]2CC[C@@]2(C)NC(=O)CC[C@@H]12 [ASE, 3beta-hydroxy-13alpha-amino-13,17-seco-5alpha-androstan-17-oic-13,17-lactam-[p-[bis (2-chloroethyl)amino]phenyl]acetate, reference compound]	92	45	> 100	50	56	8	93	0/6	24	267* %	30	78	9	> 100	>100	80	> 100	30	16	54	TGI (OVCAR-3): 52; GI50 (OVCAR-3): 36 µM; IC50 (OVCAR-3): 64 µM; TGI (PC-3): 49; GI50 (PC-3): 34 µM; IC50 (PC-3): 89 µM; TGI (MCF-7): 57; GI50 (MCF-7): 29 µM; IC50 (MCF-7): 96 µM; TGI (T-47D): 47; GI50 (T-47D): 22 µM; IC50 (T-47D): 92 µM; OS % on Day-70 [2]: 80%; PFS % on Day-70 [2]: 40%; TI % at Day-35 [2]: 34%
C[C@]12CC[C@H]3[C@@H](CCC4=CC(=O)NCC[C@@]43C)[C@@H]1CC[C@@H]2OC(=O)CCOc1ccc(N(CCCl)CCCl)cc1 [Compound 3]	52	18	76	150	27	3	65	0/6	39	433* %	130	30	3	71	25	12	40	8	3	20	TGI (OVCAR-3): 32; GI50 (OVCAR-3): 21 µM; IC50 (OVCAR-3): 42 µM; TGI (PC-3): 30; GI50 (PC-3): 22 µM; IC50 (PC-3): 56 µM; TGI (MCF-7): 38; GI50 (MCF-7): 17 µM; IC50 (MCF-7): 70 µM; TGI (T-47D): 25; GI50 (T-47D): 10 µM; IC50 (T-47D): 66 µM; OS % on Day-70 [2]: 100%; PFS % on Day-70 [2]: 100%; TI % at Day-35 [2]: 62%
C[C@]12CC[C@@H]3c4ccc(OC(=O)CCOc5ccc(N(CCCl)CCCl)cc5)cc4CC[C@H]3[C@@H]1CCC(=O)N2 [Compound 6]	76	12	> 100	100	28	5	50	0/6	36	400* %	80	30	5	50	66	18	88	20	6	44	TGI (OVCAR-3): 40; GI50 (OVCAR-3): 30 µM; IC50 (OVCAR-3): 56 µM; TGI (PC-3): 29; GI50 (PC-3): 16 µM; IC50 (PC-3): 51 µM; TGI (MCF-7): 36; GI50 (MCF-7): 15 µM; IC50 (MCF-7): 65 µM; TGI (T-47D): 30; GI50 (T-47D): 10 µM; IC50 (T-47D): 55 µM; OS % on Day-70 [2]: 100%; PFS % on Day-70 [2]: 100%; TI % at Day-35 [2]: 56%
C[C@]12CC(=O)[C@H]3[C@@H](CCC4=CC(=O)NCC[C@@]43C)[C@@H]1CC[C@@H]2OC(=O)CCOc1ccc(N(CCCl)CCCl)cc1 [Compound 11]	32	20	44	130	20	1.5	45	1/6	56	622* %	100	35	2	55	31	22	42	20	6	25	TGI (OVCAR-3): 18; GI50 (OVCAR-3): 8 µM; IC50 (OVCAR-3): 22 µM; TGI (PC-3): 44; GI50 (PC-3): 29 µM; IC50 (PC-3): 68 µM; TGI (MCF-7): 68; GI50 (MCF-7): 25 µM; IC50 (MCF-7): > 100 µM; TGI (T-47D): 59; GI50 (T-47D): 26 µM; IC50 (T-47D): 98 µM; OS % on Day-70 [2]: 100%; PFS % on Day-70 [2]: 100%; TI % at Day-35 [2]: 73%
C[C@]12CC(=O)N[C@H]3[C@@H](CCC4=CC(=O)NCC[C@@]43C)[C@@H]1CC[C@@H]2OC(=O)CCOc1ccc(N(CCCl)CCCl)cc1 [Compound 16]	46	20	70	165	36	4	56	0/6	44	489* %	140	47	7	65	32	12	50	28	3	40	TGI (OVCAR-3): 20; GI50 (OVCAR-3): 9 µM; IC50 (OVCAR-3): 35 µM; TGI (PC-3): 29; GI50 (PC-3): 16 µM; IC50 (PC-3): 51 µM; TGI (MCF-7): 36; GI50 (MCF-7): 15 µM; IC50 (MCF-7): 65 µM; TGI (T-47D): 30; GI50 (T-47D): 10 µM; IC50 (T-47D): 55 µM; OS % on Day-70 [2]: 100%; PFS % on Day-70 [2]: 100%; TI % at Day-35 [2]: 55%
